Reference: US9856288B2, “Tripeptide epoxyketone compound constructed by heterocycle and preparation method and use thereof” (ZHEJIANG UNIVERSITY, priority 2014, dated 2018)
Values joined by “and” are separate entries in the source; they are usually repeats but may differ in a detail not shown here. Equal entries are not always repeated. Where two headings read alike, the source gives them in different places.

Assays:
[1] = MTT proliferation inhibition, RPMI8226
Description: (§3) Experimental Method: Cell viability was determined by MTT method preformed as follows. Cells grown at the logarithmic growth phase was digested with a 0.01% trypsin, counted, plated in a 96-cell plate at a cell density of 2.0*10^3/well for 100 ml, and cultured in a 5% CO2 incubator at a temperature of 37° C. overnight. For each of the compounds, a gradient of six concentrations were set, in triplicate for each concentration. […] 20 ml of 5 mg/ml MTT was added to each of the cells. After incubation at a temperature of 37° C. for 3 h, supernatant was removed by suction. 100 ml of DMSO was added for dissolution. Absorption at 550 nm (L1) was determined by using SpectraMAX 340 with a reference wavelength of 690 nm (L2). The values of (L1-L2) were plotted against various concentrations, and fitted into a formula to give IC50.

[2] = MTT proliferation inhibition, NCI-H929
Description: as §3

LP1 = assay: MTT proliferation inhibition, LP1; assay type: cell-based; details: Homo sapiens, LP-1
Description: (§1) […] of DMSO was added for dissolution.
(§2) The experimental method may be referred to Test Example 2, except that the cell strains of RPMI8226 and NCI-H929 were replaced with corresponding tumor cells.

MGC-803 = assay: MTT proliferation inhibition, MGC-803; assay type: cell-based; details: Homo sapiens
Description: as §1, §2

HCT116 = assay: MTT proliferation inhibition, HCT116; assay type: cell-based; details: Homo sapiens
Description: as §1, §2

PC-3 = assay: MTT proliferation inhibition, PC-3; assay type: cell-based; details: Homo sapiens
Description: as §1, §2

MCF-7 = assay: MTT proliferation inhibition, MCF-7; assay type: cell-based; details: Homo sapiens, MCF7
Description: as §1, §2

MTT cell activity, BORT = assay type: cell-based
Description: as §3

HELA = assay: MTT cell activity, HELA; assay type: cell-based; details: Homo sapiens
K562 = assay: MTT cell activity, K562; assay type: cell-based; details: Homo sapiens
MM-1R = assay: MTT cell activity, MM-1R; assay type: cell-based; details: 100 nM
MM-1S = assay: MTT cell activity, MM-1S; assay type: cell-based; details: Homo sapiens, MM1.S; 100 nM
Description: as §3

[3] = tested on: subcutaneous xenograft of human myeloma RPMI 8226; assay: Growth inhibition of subcutaneous xenograft of human myeloma RPMI 8226 in NOD/SCID mice; assay type: in vivo; details: for Tumor inhibition (%) / Tumor weight (g) mean ± SD: RPMI8226 xenograft NOD/SCID mice; for Tumor weight (g), single animals: individual mice
Description: Experimental Method: Human myeloma RPMI8226 cell strain was inoculated subcutaneously at right flank of NOD/SCID mice with an inoculation quantity of 1×10^7 cells/mouse. After forming a xenograft, the experiment was started.
The diameters of subcutaneous xenografts of NOD/SCID mice were measured with a vernier caliper. After the tumor was grown to the size of 100-300 mm^3, the animals were grouped randomly. Equal volume of blank solvent was administered to the group of solvent control. During the experimentation, the diameters of subcutaneous xenografts were measured twice a week, and the mice were weighed at the same time.

RPMI8226 cell = assay: MTT proliferation inhibition, RPMI8226; details: Homo sapiens, RPMI-8226, 72 h, read-out: Cytotoxicity IC50 (nM) RPMI8226 cell
Description: as §3

NCI-H929 cell = assay: MTT proliferation inhibition, NCI-H929; details: Homo sapiens, NCI-H929, 72 h, read-out: Cytotoxicity IC50 (nM) NCI-H929 cell
Description: as §3

[4] = biological target: Human proteasome chymotrypsin-like protease (Homo sapiens, UniProt P28074); assay: Proteasome CT-L inhibition, fluorescent substrate Suc-Leu-Leu-Val-Tyr-AMC; assay type: biochemical
Source text: Experimental Method: By using a fluorescent substrate Suc-Leu-Leu-Val-Tyr-AMC to observe the inhibition of various compounds on activity of the enzyme, the inhibitory effect of the compounds was preliminarily evaluated. Human proteasome chymotrypsin-like protease may hydrolyze the sequence Tyr-AMC of the substrate to release AMC.

[5] = biological target: proteasome PGPH active site (Homo sapiens, UniProt P28072); assay: Proteasome PGPH inhibition, substrate Z-Leu-Leu-Glu-AMC; assay type: biochemical
[6] = biological target: proteasome T-L active site (Homo sapiens, UniProt Q99436); assay: Proteasome T-L inhibition, substrate Bz-Val-Gly-Arg-AMC; assay type: biochemical

Structure (SMILES): CC(C)C[C@H](NC(=O)N1CCC(C(=O)Nc2cnccn2)CC1)C(=O)N[C@@H](Cc1ccccc1)C(=O)N[C@@H](CC(C)C)C(=O)C1(C)CN1 (stereo partly drawn) [Compound 5v, 4-(pyrazin-2-yl carbamoyl)piperidin-1-oyl-Leu-Phe-Leu-aziridinone]
- IC50 [1]: > 1000 nM
- IC50 [2]: > 1000 nM

Structure (SMILES): CCN1CC1(C)C(=O)[C@H](CC(C)C)NC(=O)[C@H](Cc1ccccc1)NC(=O)[C@H](CC(C)C)NC(=O)N1CCC(C(=O)Nc2cnccn2)CC1 (stereo partly drawn) [Compound 5w, 4-(pyrazin-2-yl carbamoyl)piperidin-1-oyl-Leu-Phe-Leu-(N-ethyl aziridinone)]
- IC50 [1]: > 1000 nM
- IC50 [2]: > 1000 nM

Structure (SMILES): CC(C)C[C@H](NC(=O)[C@H](CCc1ccccc1)NC(=O)CN1CCOCC1)C(=O)N[C@@H](Cc1ccccc1)C(=O)N[C@@H](CC(C)C)C(=O)[C@@]1(C)CO1 [Carfilzomib, reference compound]
- IC50 (LP1): 22.7 ± 2.51 nM
- IC50 (MGC-803): 8.95 ± 0.12 nM
- IC50 (HCT116; HCT-116, MTT): 8.93 ± 1.44 µM
- IC50 (PC-3): 24.2 ± 2.72 µM
- IC50 (MCF-7): 1.02 ± 0.07 µM
- activity at 1 µM (MTT cell activity, BORT): 61.1 ± 2.49%
- activity at 10 µM (HELA): 61.2 ± 3.44%
- activity at 10 µM (K562): 58.6 ± 1.04%
- activity at 0.1 µM (MM-1R): 92.2 ± 6.34%
- activity at 0.1 µM (MM-1S): 76.2 ± 1.36%
- Tumor inhibition (%) ([3]; 4 mg/kg): 58.10%
- Tumor weight (g) mean ± SD ([3]; 4 mg/kg): 0.53 ± 0.21 g
- Tumor weight (g), single animals ([3]; 4 mg/kg): 0.57 g and 0.38 g and 0.32 g and 0.85 g
- IC50 (RPMI8226 cell): 3 nM
- IC50 (NCI-H929 cell): 28.8 nM

Structure (SMILES): CC(C)C[C@H](NC(=O)N1CCN(C(=O)c2cnccn2)CC1)C(=O)N[C@@H](Cc1ccccc1)C(=O)N[C@@H](CC(C)C)C(=O)[C@@]1(C)CO1 [Compound 5c, 4-(pyrazin-2-oyl)piperazin-1-oyl-Leu-Phe-Leu-epoxy ketone]
- IC50 [4]: 90.8 nM
- IC50 [1]: 28.9 nM
- IC50 [2]: 100 nM

Structure (SMILES): CC(C)C[C@H](NC(=O)[C@H](Cc1ccccc1)NC(=O)c1cnccn1)B(O)O [Bortezomib]
- Tumor inhibition (%) ([3]; 1 mg/kg): 34.78%
- Tumor weight (g) mean ± SD ([3]; 1 mg/kg): 0.83 ± 0.25 g
- Tumor weight (g), single animals ([3]; 1 mg/kg): 1.21 g and 0.38 g and 0.92 g and 0.90 g and 0.74 g and 0.80 g
- IC50 (RPMI8226 cell): 1.8 nM
- IC50 (NCI-H929 cell): 9.5 nM

Structure (SMILES): CC(C)C[C@H](NC(=O)N1CCC(C(=O)Nc2ccc(F)cc2)CC1)C(=O)N[C@@H](Cc1ccccc1)C(=O)N[C@@H](CC(C)C)C(=O)C1(C)CS1 (stereo partly drawn) [Compound 5u, 4-(4-fluorophenyl carbamoyl)piperidin-1-oyl-Leu-Phe-Leu-cyclothione]
- IC50 [1]: > 1000 nM
- IC50 [2]: > 1000 nM

Structure (SMILES): CC(C)C[C@H](NC(=O)N1CCC(C(=O)Nc2ccccn2)CC1)C(=O)N[C@@H](Cc1ccccc1)C(=O)N[C@@H](CC(C)C)C(=O)[C@@]1(C)CO1 [Compound 5k, 4-(pyridin-2-yl carbamoyl)piperidin-1-oyl-Leu-Phe-Leu-epoxy ketone]
- IC50 [4]: 1.5 nM
- IC50 (LP1): 15.2 ± 2.82 nM
- IC50 (MGC-803): 3.72 ± 0.13 nM
- IC50 (HCT116; HCT-116, read-out: IC50 HCT116): 0.00572 ± 0.00072 µM
- IC50 (PC-3): 7.74 ± 0.77 µM
- IC50 (MCF-7): 0.42 ± 0.04 µM
- activity at 1 µM (MTT cell activity, BORT): 54.5 ± 2.13%
- activity at 10 µM (HELA): 55.8 ± 3.53%
- activity at 10 µM (K562): 55.6 ± 1.53%
- activity at 0.1 µM (MM-1R): 88.2 ± 7.24%
- activity at 0.1 µM (MM-1S): 72.2 ± 3.19%
- PGHP (Fold/CT-L) ([5]; ratio of PGHP IC50 to CT-L IC50): 321.0
- IC50 ([5]; read-out: IC50 (nM) PGHP): 485 ± 26.1 nM
- IC50 [6]: 3180 ± 47.2 nM
- T-L (Fold/CT-L) ([6]; ratio of T-L IC50 to CT-L IC50): (2107.0)
- Tumor inhibition (%) ([3]; 4 mg/kg): 53.62%
- Tumor weight (g) mean ± SD ([3]; 4 mg/kg): 0.59 ± 0.24 g
- Tumor weight (g), single animals ([3]; 4 mg/kg): 0.20 g and 0.66 g and 0.44 g and 0.52 g and 0.72 g and 0.98 g
- IC50 [1]: 2.5 nM
- IC50 [2]: 15.3 nM

Structure (SMILES): CC(C)C[C@H](NC(=O)N1CCC(C(=O)Nc2cnccn2)CC1)C(=O)N[C@@H](Cc1ccccc1)C(=O)N[C@@H](CC(C)C)C(=O)C1(C)CS1 (stereo partly drawn) [Compound 5t, 4-(pyrazin-2-yl carbamoyl)piperidin-1-oyl-Leu-Phe-Leu-cyclothione]
- IC50 [1]: > 1000 nM
- IC50 [2]: > 1000 nM
